# US10933062B2, “Analgesic therapeutic and method, 1-(3-4(((1 R,3S,5S)-adamantan-1-yl)(phenyl)methyl)propyl)-4-methylpiperazine and salts thereof” (ANAVEX LIFE SCIENCES CORP., priority 2016, dated 2021)
# “And” between values parts separate entries of the source, which are not always exact repeats. Equal values may be shown once.
# Legend:
# [1] = system: model of TNBS-induced chronic colonic hypersensitivity in rats; test: TNBS-induced chronic colonic hypersensitivity, colorectal balloon distension threshold; conditions: for % antihypersensitivity activity / Colonic distension threshold (mmHg): TNBS 50 mg/kg
# [2] = system: patients with nociceptive or neuropathic pain; test: Patient examples 1-5: oral AV1066, patient-reported pain control; format: in vivo, human; conditions: Example 1, bone fracture pain (nociceptive), oral 5 mg/kg/day, days 3, 7, 16, 28
# Protocol: A patient or subject (the terms are used interchangeably) presents with a fractured collar bone arising from a bicycling accident. They are complaining of significant shoulder pain. The patient's pain is classified according to the
# International Association for the Study of Pain as nociceptive. They are orally administered AV1066 5 mg/kg/day. They are examined at days 3, 7, 16, and 28. At each visit the patient is assessed for pain control compared with the previous visit.
# A patient presents with a second […]. They are complaining of significant pain. The patient's pain is classified according to the International Association for the Study of Pain as nociceptive. They are orally administered the phosphate salt of AV1066 10 mg/kg daily in two doses. They are examined at 12 hours, and daily thereafter for 4 days. At each visit the patient is assessed for pain control compared with the previous visit.
# A patient presents with a benign tumor mass compressing their left shoulder causing movement pain. The patient's pain is classified according to the International Association for the Study of Pain as nociceptive. They are orally administered the sodium salt of AV1066 30 mg/kg/day in two doses. They are examined daily thereafter at 3, 7, and 28 days. At each visit the patient is assessed for pain control compared with the previous visit. […]
# [3] = system: model of peripheral mononeuropathy (Bennett model) in rats; test: Chronic constriction injury (Bennett model) of peripheral mononeuropathy, paw pressure test; format: in vivo
# [4] = system: model of peripheral mononeuropathy (Bennett model) in rats; conditions: typical values given for comparison; cited from earlier work
# [5] = injured paw, TO (pre-drug), 10 mg/kg p.o.
# [6] = injured paw, TO (pre-drug), 30 mg/kg p.o.
# [7] = injured paw, TO (pre-drug), 100 mg/kg p.o.
# [8] = injured paw, TO + 30 min, 10 mg/kg p.o.
# [9] = injured paw, TO + 30 min, 30 mg/kg p.o.
# [10] = injured paw, TO + 30 min, 100 mg/kg p.o.
# [11] = injured paw, TO + 60 min, 10 mg/kg p.o.
# [12] = injured paw, TO + 60 min, 30 mg/kg p.o.
# [13] = injured paw, TO + 60 min, 100 mg/kg p.o.
# [14] = injured paw, TO + 120 min, 10 mg/kg p.o.
# [15] = injured paw, TO + 120 min, 30 mg/kg p.o.
# [16] = injured paw, TO + 120 min, 100 mg/kg p.o.
# [17] = injured paw, TO + 180 min, 10 mg/kg p.o.
# [18] = injured paw, TO + 180 min, 30 mg/kg p.o.
# [19] = injured paw, TO + 180 min, 100 mg/kg p.o.
# [20] = single administration 10, 30, 100 mg/kg PO
# [21] = injured paw, TO (pre-drug), 3 mg/kg s.c.
# [22] = injured paw, TO + 30 min, 3 mg/kg s.c.
# [23] = injured paw, TO + 60 min, 3 mg/kg s.c.
# [24] = injured paw, TO + 120 min, 3 mg/kg s.c.
# [25] = injured paw, TO + 180 min, 3 mg/kg s.c.
smiles,measurement,setting,value
"CN1CCN(CCCc2ccc(C(c3ccccc3)C34CC5CC(CC(C5)C3)C4)cc2)CC1 [AV1066, 1-(3-4(((1R,3S,5S)-adamantan-1-yl)(phenyl)methyl)propyl)-4-methylpiperazine]",% antihypersensitivity activity,[1]; 10 mg/kg p.o.,26%
same,Colonic distension threshold (mmHg),[1]; 10 mg/kg p.o.,30.3 ± 1.3 mmHg
same,% antihypersensitivity activity,[1]; 30 mg/kg p.o.,71%
same,Colonic distension threshold (mmHg),[1]; 30 mg/kg p.o.,36.4 ± 1.3 mmHg
same,untoward effects,"[1]; TNBS study, single PO administration",No untoward effects
same,patient-reported pain control,[2],tolerable and improved at each visit
same,difference in the nociceptive threshold vs. vehicle,"[3]; 30 mg/kg dose, T=+30 minutes",116 g
same,anti-hyperalgesic effect,"[3]; 30 mg/kg dose, T=+30 minutes, vs vehicle",59%
same,untoward effects,"[3]; CCI study, 10, 30, 100 mg/kg PO",No untoward effects
same,Nociceptive threshold,"[3]; control paw, TO, 10 mg/kg p.o.",366 ± 11.9 g
same,Nociceptive threshold,"[3]; control paw, TO, 30 mg/kg p.o.",352 ± 15.8 g
same,Nociceptive threshold,"[3]; control paw, TO, 100 mg/kg p.o.",354 ± 9.9 g
same,% variation vs control paw,[3]; [5],−54%
same,% variation vs vehicle-treated group,[3]; [5],−15%
same,Nociceptive threshold,[3]; [5],170 ± 11.6 g
same,% variation vs control paw,[3]; [6],−45%
same,% variation vs vehicle-treated group,[3]; [6],−4%
same,Nociceptive threshold,[3]; [6],192 ± 8.5 g
same,% variation vs control paw,[3]; [7],−49%
same,% variation vs vehicle-treated group,[3]; [7],−9%
same,Nociceptive threshold,[3]; [7],182 ± 9.6 g
same,% variation vs control paw,[3]; [8],−32%
same,% variation vs pre-drug threshold,[3]; [8],38%
same,% variation vs vehicle-treated group,[3]; [8],19%
same,Nociceptive threshold,[3]; [8],234 ± 11.2 g
same,% variation vs control paw,[3]; [9],−19%
same,% variation vs pre-drug threshold,[3]; [9],63%
same,% variation vs vehicle-treated group,[3]; [9],59%
same,Nociceptive threshold,"[3]; injured paw, TO + 30 min, 30 mg/kg p.o., 30 mg/kg",312 g and 312 ± 15.5 g
same,% variation vs control paw,[3]; [10],−20%
same,% variation vs pre-drug threshold,[3]; [10],64%
same,% variation vs vehicle-treated group,[3]; [10],52%
same,Nociceptive threshold,[3]; [10],298 ± 21.4 g
same,% variation vs control paw,[3]; [11],−29%
same,% variation vs pre-drug threshold,[3]; [11],39%
same,% variation vs vehicle-treated group,[3]; [11],6%
same,Nociceptive threshold,[3]; [11],236 ± 11.5 g
same,% variation vs control paw,[3]; [12],−16%
same,% variation vs pre-drug threshold,[3]; [12],43%
same,% variation vs vehicle-treated group,[3]; [12],23%
same,Nociceptive threshold,[3]; [12],274 ± 14.3 g
same,% variation vs control paw,[3]; [13],−11%
same,% variation vs pre-drug threshold,[3]; [13],60%
same,% variation vs vehicle-treated group,[3]; [13],32%
same,Nociceptive threshold,[3]; [13],292 ± 17.2 g
same,% variation vs control paw,[3]; [14],−30%
same,% variation vs pm-drug threshold,[3]; [14],27%
same,% variation vs vehicle-treated group,[3]; [14],6%
same,Nociceptive threshold,[3]; [14],216 ± 12.6 g
same,% variation vs control paw,[3]; [15],−21%
same,% variation vs pm-drug threshold,[3]; [15],41%
same,% variation vs vehicle-treated group,[3]; [15],32%
same,Nociceptive threshold,[3]; [15],270 ± 11.6 g
same,% variation vs control paw,[3]; [16],−23%
same,% variation vs pm-drug threshold,[3]; [16],44%
same,% variation vs vehicle-treated group,[3]; [16],28%
same,Nociceptive threshold,[3]; [16],262 ± 12.5 g
same,% variation vs control paw,[3]; [17],−23%
same,% variation vs pre-drug threshold,[3]; [17],38%
same,% variation vs vehicle-treated group,[3]; [17],9%
same,Nociceptive threshold,[3]; [17],234 ± 15.5 g
same,% variation vs control paw,[3]; [18],−36%
same,% variation vs pre-drug threshold,[3]; [18],1%
same,% variation vs vehicle-treated group,[3]; [18],−9%
same,Nociceptive threshold,[3]; [18],194 ± 13.0 g
same,% variation vs control paw,[3]; [19],−27%
same,% variation vs pre-drug threshold,[3]; [19],16%
same,% variation vs vehicle-treated group,[3]; [19],−1%
same,Nociceptive threshold,[3]; [19],212 ± 15.8 g
same,"effect on nociceptive (pain) threshold of the affected paw, in words",[3]; [20],dose-dependently restores the pain threshold lowered by chronic constriction injury
same,time at which efficacy was apparent post-dose,[3]; [20],30 min
same,time for which efficacy remained significant,[3]; [20],2 h
same,max effect,[3]; whatever the dose,59%
"CN1CC[C@]23c4c5ccc(O)c4O[C@H]2[C@@H](O)C=C[C@H]3[C@H]1C5.Cl [Morphine HCl, reference compound]",Nociceptive threshold,"[3]; control paw, TO, 3 mg/kg s.c.",349 ± 11.1 g
same,% variation vs control paw,[3]; [21],−47%
same,% variation vs vehicle-treated group,[3]; [21],−8%
same,Nociceptive threshold,[3]; [21],184 ± 11.9 g
same,% variation vs control paw,[3]; [22],−11%
same,% variation vs pre-drug threshold,[3]; [22],212%
same,% variation vs vehicle-treated group,[3]; [22],194%
same,Nociceptive threshold,[3]; [22],576 ± 46.8 g
same,% variation vs control paw,[3]; [23],−6%
same,% variation vs pre-drug threshold,[3]; [23],212%
same,% variation vs vehicle-treated group,[3]; [23],159%
same,Nociceptive threshold,[3]; [23],576 ± 28.8 g
same,% variation vs control paw,[3]; [24],−11%
same,% variation vs pm-drug threshold,[3]; [24],110%
same,% variation vs vehicle-treated group,[3]; [24],90%
same,Nociceptive threshold,[3]; [24],387 ± 40.4 g
same,% variation vs control paw,[3]; [25],−19%
same,% variation vs pre-drug threshold,[3]; [25],31%
same,% variation vs vehicle-treated group,[3]; [25],13%
same,Nociceptive threshold,[3]; [25],242 ± 19.0 g
NCC1(CC(=O)O)CCCCC1 [gabapentin],"anti-hyperalgesic effect, typical range of non-opioid treatments",[4],40-50%
